This is an account of results in patent US4550021A (The Kitasato Institute, priority 1983, dated 1985).

Holding throughout (type): physicochemical
One data set can be described thus: Nature (acid/base).
A short description of another data set: Solubility. The conditions noted are these: for Solubility in organic solvents: dichloromethane, chloroform, acetone.
A further data set can be described thus: Stability under heating.

In the case of `CCC(=C/[C@H](C)C/C=C/C(C)=C/[C@@H](CO)C(=O)[C@@H](C)[C@H](O)[C@@H](C)C/C(C)=C/C(=O)O)/C=C/[C@@H]1OC(=O)C=C[C@@H]1C` [antibiotic 81-484], the Nature result in “Nature (acid/base)” was “acidic substance”. Also, the “Solubility in organic solvents” value is given as “soluble” in the data set “Solubility” (diethyl ether, methanol, ethyl acetate, butyl acetate, benzene) and “soluble” in “Solubility” (many types: methanol, ethanol, methyl isobutyl ketone). Further, the Solubility in hexane entry in the data set “Solubility” (hexane) is recorded as “insoluble”. The Solubility in water result in the data set “Solubility” (water) was “insoluble”. In the data set “Stability under heating”, the stability under heating entry is reported as “stable under heating”.
